Measured values reported in patent US11491089B2, “Reloadable microcapsules” (International Flavors & Fragrances Inc., priority 2016, dated 2022).

Assay: Hansen solubility parameters of the core solvents
Type: physicochemical
Description: The term “Hansen solubility parameter” refers to a solubility parameter approach proposed by Charles Hansen used to predict polymer solubility and was developed around the basis that the total energy of vaporization of a liquid consists of several individual parts. To calculate the “weighted Hansen solubility parameter” one must combine the effects of (atomic) dispersion forces, (molecular) permanent dipole-permanent dipole forces, and (molecular) hydrogen bonding (electron exchange). The “weighted Hansen solubility parameter” is calculated as (δD^2+δP^2+δH^2)^0.5, wherein δD is the Hansen dispersion value, δP is the Hansen polarizability value, and δH is the Hansen Hydrogen-bonding (“h-bonding”) value.

Compound	δD (Hansen dispersion value)	δH (Hansen h-bonding value)	δP (Hansen polar (dipole-dipole) value)
CCCCCCCCCCCCCC(=O)OC(C)C [isopropyl myristate]	16	2.7	2.1
CC(=O)OCC(COC(C)=O)OC(C)=O [triacetin]	16.4	9.6	5.7
